Values of other authors in patent US20160213008A1, “ULTRASONIC MICRO-DROPLET RELEASE OF MATRIX BOUND FOOD DERIVED ANTIMICROBIALS” (priority 2015, published 2016).

Conditions: Cavallito and colleagues 1944

Row | SMILES | antibacterial and antifungal / antimicrobial activity
1 | C=CCS[S+]([O-])CC=C (centres unmarked) [allicin] | attributable
2 | C=CCSSC=CC[S+]([O-])CC=C (mixture of isomers) [Ajoene] | shows antimicrobial properties
